As usually defined, the IC50 is the concentration that inhibits the measured activity by half. In general, CC50 refers to the concentration at which the toxic effect on the cells reaches its halfway point. Low values mean greater toxicity to the cells, high ones lower toxicity to the cells.

We go through two compounds from PMC12374030, “Hydroxyalkyne–Bithiophene Derivatives: Synthesis and Antileishmanial Activity” (Chemical Biology & Drug Design, 2025).

Structures are written as SMILES. Values after ≈ are worked out from the molar mass of the structure shown.

Data set [1] deals with Leishmania amazonensis promastigote. Set-up: method as in Takahashi et al. [2011]. Conditions: previous work; ref Takahashi et al. [2011]; cited from earlier work.
Data set [2] relates to Leishmania amazonensis amastigote. Set-up: method as in Takahashi et al. [2011]. Conditions: previous work; ref Takahashi et al. [2011]; cited from earlier work.
The subject of data set [3] is L. amazonensis promastigote forms. Briefly: Antiproliferative assay (XTT). The data set is classed as cell-based, Leishmania amazonensis. The protocol: L. amazonensis MHOM/BR/75/Josefa strain was originally isolated from a human case of CL by Dr. […]. Cuba at the University of Brasilia, Brazil (Saraiva et al. [1983]; Cuba et al. [1985]). […] The activity against promastigotes was evaluated by XTT (0.5 mg mL^-1), as previously described (Meshulam et al. [1995]). Absorbance was read in a microplate spectrophotometer (PowerWave XS; BioTek, Winooski, VT, USA) at 450 nm.
A general note: Formazan colour is commonly taken as a measure of viable cells.

A short description of data set [4]: Cytotoxicity assay in macrophages (MTT). The data set is classed as cell-based. Particulars: mouse, J774A.1 macrophages, pH 7.2. As to the method: L. amazonensis MHOM/BR/75/Josefa strain was originally isolated from a human case of CL by Dr. Cesar A. Cuba at the University of Brasilia, Brazil (Saraiva et al. [1983]; Cuba et al. [1985]). Promastigote forms of this strain were maintained axenically in Warren's medium (brain–heart infusion plus hemin and folic acid; pH 7.2) supplemented with 10% heat‐inactivated FBS and maintained at 25°C. J774A.1 macrophages (obtained from the Cell Bank of Rio de Janeiro, RJ, Brazil) were maintained in RPMI‐1640 medium (pH 7.2), supplemented with sodium bicarbonate, L‐glutamine, 10% FBS, and streptomycin and penicillin at 37°C in a 5% CO2 atmosphere.
Cytotoxicity was evaluated in the J774A.1 macrophages. Macrophages (5 × 10^5 cells mL^−1) were cultured in 96‐well microplates containing RPMI‐1640 medium supplemented with 10% FBS. The plates were incubated at 37°C in a 5% CO2 atmosphere for confluent growth of the cells. After 24 h, the compounds were added to each well at increasing concentrations (31.25–1000 μM) and incubated for 48 h at 37°C in a 5% CO2 atmosphere. The cytotoxicity was evaluated by MTT (2 mg mL^−1), as previously described (Mosmann [1983]). Absorbance was read in a microplate spectrophotometer (PowerWave XS; BioTek, […], VT, USA) at 570 nm.

For data set [5], the system named is L. amazonensis promastigotes. Nature of the data set: Mitochondrial membrane potential (Rh123, flow cytometry). The data set is classed as cell-based, Leishmania amazonensis. Particulars: for Mitochondrial potential: Average (Median): 24 h, Rh123 fluorescence. As to the method: Promastigotes at 1 × 10^6 parasites mL^−1 treated with BT‐1 for 24 h were incubated with 5 μg mL^−1 Rh123, a fluorescent probe that accumulates in mitochondria, for 15 min (Menna‐Barreto, Corrêa, et al. [2009]; Menna‐Barreto, Goncalves, et al. [2009]). As a positive control, 100 μM CCCP was used. The data acquisition and analysis were performed using a FACSCalibur flow cytometer (BD Biosciences, Franklin Lakes, NJ, USA) equipped with CellQuest software. A total of 10,000 events were acquired in the region corresponding to the parasites.
For orientation: A flow cytometer gives signals particle by particle.

In data set [6] the test system is L. amazonensis promastigotes. Briefly: Reactive oxygen species production (H2DCFDA). The data set is classed as cell-based, Leishmania amazonensis. As to the method:
Promastigotes at 1 × 10^6 parasites mL^−1 treated with BT‐1 for 24 h were incubated with 10 μM H2DCFDA in the dark for 45 min. As a positive control, 50 μM H2O2 was used. The fluorescence was determined by oxidation of H2DCFDA to the fluorescent product, 2′‐7ʹ dichlorofluorescein (DCF), which was measured in a Victor X3 spectrofluorimeter (PerkinElmer, Waltham, MA, USA) at λex of 488 nm and λem of 530 nm (Shukla et al. [2012]).

Data set [7] has as its system L. amazonensis promastigotes. Nature of the data set: Lipid peroxidation assay (DPPP). The data set is classed as cell-based, Leishmania amazonensis. As to the method: Promastigotes at 1 × 10^6 parasites mL^−1 treated with BT‐1 for 24 h were incubated with 50 μM DPPP for 15 min at 22°C. As a positive control, 50 μM H2O2 was used. The fluorescence was determined in a Victor X3 spectrofluorimeter (PerkinElmer, Waltham, MA, USA) at λex of 355 nm and λem of 460 nm. DPPP is essentially nonfluorescent until it is oxidized to a phosphine oxide (DPPP‐O) by peroxides (Okimoto et al. [2000]).

In data set [8] the test system is L. amazonensis promastigotes. Nature of the data set: Lipid bodies accumulation (Nile red). The data set is classed as cell-based, Leishmania amazonensis. The protocol: Promastigotes at 1 × 10^6 parasites mL^−1 treated with BT‐1 for 24 h were incubated with 10 μg mL^−1 Nile red, a lipophilic stain, for 30 min at 25°C. The fluorescence was measured in a Victor X3 spectrofluorimeter (PerkinElmer, Waltham, MA, USA) at λex of 485 nm and λem of 535 nm (Stefanello et al. [2014]).

Data set [9] relates to L. amazonensis promastigotes. Briefly: Cell membrane integrity (PI, flow cytometry). The data set is classed as cell-based, Leishmania amazonensis. As to the method: Promastigotes at 1 × 10^6 parasites mL^−1 treated with BT‐1 for 24 h were incubated with 0.2 μg mL^−1 PI for 10 min. As a positive control, 40 μM digitonin was used. The data acquisition and analysis were performed using a FACSCalibur flow cytometer (BD Biosciences, Franklin Lakes, NJ, USA) equipped with CellQuest software. A total of 10,000 events were acquired in the region that corresponded to the parasites. Alterations in PI fluorescence were quantified as the percentage increase in fluorescence compared with the untreated parasites (Lazarin‐Bidóia et al. [2013]).

Data set [10] concerns L. amazonensis promastigotes. Briefly: Cell size (FSC-H, flow cytometry). The data set is classed as cell-based, Leishmania amazonensis. Particulars: 2 × IC50, 24 h. As to the method: Promastigotes at 1 × 10^6 parasites mL^−1 treated with BT‐1 for 24 h were washed twice and resuspended in phosphate‐buffered saline (PBS), then analyzed using a FACSCalibur flow cytometer (BD Biosciences, Franklin Lakes, NJ, USA) equipped with CellQuest software. As a positive control, […] actinomycin D was used. A total of 10,000 events were acquired in the region that corresponded to the parasites. Histograms were generated for each sample, where the forward light scatter (FSC‐H) represents the cell volume (Lazarin‐Bidóia et al. [2013]).

For data set [11], the system named is L. amazonensis promastigotes. Nature of the data set: Cell cycle (PI-RNAse A, flow cytometry). The data set is classed as cell-based, Leishmania amazonensis. Conditions: IC50, 24 h. As to the method:
Promastigotes at 1 × 10^6 parasites mL^−1 treated with BT‐1 for 24 h were fixed in 70% cold methanol in PBS at 4°C for 2 h. Afterward, the parasites were washed in PBS, 10 μg mL^−1 PI‐RNAse A was added, and the samples were incubated at 37°C for 45 min. The data acquisition and analysis were performed using a FACSCalibur flow cytometer (BD Biosciences, Franklin Lakes, NJ, USA) equipped with CellQuest software. A total of 10,000 events were acquired in the region that corresponded to the parasites. As a positive control, 40 μM miltefosine was used. The percentages of cells in each stage of the cell cycle were determined based on the intensity of the PI fluorescence, which is directly proportional to the DNA content.

The test system of data set [12] is L. amazonensis promastigote forms. Nature of the data set: Morphological and ultrastructural changes (SEM, TEM). The data set is classed as cell-based, Leishmania amazonensis. Particulars: IC50 or 2 × IC50, 72 h. As to the method:
After this, the parasites were fixed in a solution of 2.5% glutaraldehyde in 0.1 M cacodylate buffer for 24 h at 4°C. For scanning electron microscopy (SEM), the parasites were dehydrated in increasing concentrations of ethanol, critical point‐dried in CO2, sputter‐coated with gold, and observed in a Quanta 250 scanning electron microscope (FEI Company, Hillsboro, OR, USA). For transmission electron microscopy (TEM), the parasites were fixed as described for SEM. After this, the parasites were postfixed in a solution of 1% OsO4, 0.8% K4[Fe(CN)6], and 10 mM CaCl2 in 0.1 M cacodylate buffer. The samples were dehydrated in increasing concentrations of acetone and embedded in Poly/Bed 812 resin. Ultrathin sections were then obtained, contrasted with uranyl acetate and lead citrate, and observed in a JEM 1400 transmission electron microscope (JEOL Ltd., Tokyo, Japan).

The next data set relates to J774A.1 macrophages. Nature of the data set: Cytotoxicity assay in macrophages (MTT). The data set is classed as cell-based. Conditions: at 23.2 μM (IC50 against promastigotes).

For `CC(=O)OCCC#Cc1ccc(-c2ccc(C)s2)s1` [I, 5′‐methyl‐(5‐[4‐acetoxy‐1‐butynyl])‐2,2′‐bithiophene], the IC50 promastigote in [1] was 21.3 ± 4.4 µg/mL (≈ 73.3 µM). For the same compound, the IC50 amastigote in data set [2] is 28.7 ± 2.6 µg/mL (≈ 98.8 µM).

Turning to `CCC(O)C#Cc1ccc(-c2ccc(C=O)s2)s1` (stereo not shown) [Compound 1], in [3] (Leishmania amazonensis, 72 h, 25°C, XTT, read-out: L. amazonensis (promastigotes) IC50), the IC50 came to 23.2 ± 1.1 µM. In addition, in data set [3] (ratio between the CC50 (J774A.1 macrophages) and IC50 (promastigotes)), the “Selectivity index (SI)” value came to 9.33. In [4], this compound displayed a CC50 at 48 h of 216 ± 5.1 µM. The “Mitochondrial potential: Average (Median)” value in data set [5] (23.2 μM (IC50)) was 1841.42; in data set [5] (46.4 μM (2 × IC50)), 796.77. Further, the “reduction of mitochondrial potential compared with the untreated control” value in data set [5] (2 × IC50, 24 h) is 2.75 fold. The “increase in the production of total ROS vs untreated control” value in data set [6] (2 × IC50, 24 h) stood at 9.0 fold; in data set [6] (IC50, 24 h), 3.0 fold. Also, the “increase in lipoperoxidation vs untreated control” value in data set [7] (2 × IC50, 24 h) amounted to 8.0 fold; in data set [7] (IC50, 24 h), 3.0 fold. In addition, the “increase in lipid body accumulation vs untreated control” value in data set [8] (2 × IC50, 24 h) was 1.5 fold; in data set [8] (IC50, 24 h) it was 1.4 fold. For the same compound, the “increase of PI-stained cells vs untreated control” value in data set [9] (2 × IC50, 24 h) turned out to be 11.13 fold; in [9] (IC50, 24 h), 3.48 fold. Moreover, the “decrease in cell size compared with the untreated control” value in data set [10] is on record as 1.45 fold. Also, the “increase of cells in G0/G1 phase” value in data set [11] is recorded as 1.3 fold. Moreover, the “increase of cells in sub-G0/G1 phase” value in [11] is 2.22 fold. The “morphological alterations by SEM” value in data set [12] was “rounded shape and a reduction in cell body size, cell surface roughness, a shorter flagellum, and extravasation of cytoplasmic content”. In data set [12], the “ultrastructural alterations by TEM” value is “presence of lipid bodies, loss of cell content, disorganization of the nucleus, a large amount of exocytic activity, and mitochondrial swelling”. Further, the “toxicity to J774A.1 macrophages” value with J774A.1 macrophages is “no toxicity”.
